Data: article PMC9266004, “Potential Common Mechanisms of Cytotoxicity Induced by Amide Herbicides via TRPA1 Channel Activation” (International Journal of Environmental Research and Public …, 2022)

Columns and labels:
[1] = test system: TRPA1 mRNA in A549 cells; test: RT-qPCR of TRPA1 mRNA; assay type: cell-based, human; conditions: for TRPA1 mRNA expression with HC-030031 pre-treatment compared with AHs treatment alone: HC-030031 50 μM, AHs 150, 300, 600 μM; for expression of TRPA1 mRNA compared with 0 μM AHs: significant at one or more of 150, 300, 600 μM
Experimental: Wild-type (WT) and TRPA1-KO A549 cells were cultured in McCoy’s 5A Media and F-12K Nutrient Mixture containing 10% fetal bovine serum, respectively. WT/TRPA1-KO A549 cells (5 × 10^4 cells/mL) were seeded in 96-well (100 μL/well) and 6-well (2 mL/well) plates and incubated at 37 °C with 5% CO2 in a humidified incubator for 24 h. WT/TRPA1-KO A549 cells were treated with AHs gradient concentrations (0, 150, 300, 600, 1200 μM) prepared in methanol (1.2 M) for 24 h. […]
TRIzol Reagent (1 mL) was directly added to WT/TRPA1-KO A549 cells in 6-well plates and total RNA was extracted according to the manufacturer’s instructions. Total RNA was used for cDNA reverse transcription, which was performed according to the PrimeScript RT protocol with the following reaction conditions: 42 °C for 2 min, 4 °C for ∞ (removal of genomic DNA), 37 °C for 15 min, 85 °C for 5 s, and 4 °C for ∞ (reverse transcriptional reaction). RT-qPCR was performed according to the TB Green Premix Ex Taq II protocol. Primer sequences and product lengths were as follows: hTRPA1 (107 bp) forward primer 5′-[…]-3′, reverse primer 5′-[…]-3′; hβ-actin (184 bp) forward primer 5′-[…]-3′, reverse primer 5′-[…]-3′. RT-qPCR was performed using the CFX96 Real-Time System (Bio-Rad Laboratories, Hercules, CA, USA) using the following reaction conditions: 95 °C for 30 s, 40 cycles of 95 °C for 5 s, 60 °C for 30 s, and 72 °C for 30 s, followed by a melting curve from 65 to 95 °C in 0.5 °C/5 s increments. Calculations were performed using the CFX Manager^TM Version 1.0 software (Bio-Rad Laboratories Ltd., Hercules, CA, USA) and are represented as fold change in expression [2^ΔΔC(t)] on a linear scale.

[2] = test system: TRPA1-KO A549 cells; test: CCK-8 cell viability assay in TRPA1-KO A549 cells; assay type: cell-based, human; conditions: for IC50: Homo sapiens, TRPA1-KO A549 cells, 24 h treatment, CCK-8, read-out: IC50 values of AHs, TRPA1-KO A549 Cells; for viability of TRPA1-KO A549 cells compared with AHs-treated WT cells: KO of TRPA1, AHs 150, 300, 600 μM
Experimental: The hTRPA1 gene sequence (Gene ID: 8989) was obtained from the National Center for Biotechnology Information (NCBI) website (https://www.ncbi.nlm.nih.gov/gene/8989 accessed on 26 May 2022). Three gRNA sequences, namely, T1: 5′-[…]-[…], T16: 5′-[…]-3′, and T20: 5′-[…]-3′, were designed using the CRISPR online design tool (http://crispr.mit.edu/ accessed on 26 May 2022). Transfection of cells with gRNA-Cas9 was validated in test cells. Cell pool examination was performed using Sanger sequencing. Sequencing and tracer analysis were performed using the online tool TIDE (https://tide-calculator.nki.nl/ accessed on 26 May 2022) to investigate the cleavage efficiency of T1, T16, and T20. Cells from the cell pool were diluted in 96-well plates. Clones were observed under a microscope and wells containing single cell clones were labeled. Single cell clones were transferred to 24-well plates for expansion. Validation of knockout (KO) clones was performed via sequencing to confirm insertion and deletion on the genomes of KO clone candidates. Furthermore, mycoplasmas were detected for cloned cells with high KO using the Mycoplasma PCR Detection Kit.
Wild-type (WT) and TRPA1-KO A549 cells were cultured in McCoy’s 5A Media and F-12K Nutrient Mixture containing 10% fetal bovine serum, respectively. WT/TRPA1-KO A549 cells (5 × 10^4 cells/mL) were seeded in 96-well (100 μL/well) and 6-well (2 mL/well) plates and incubated at 37 °C with 5% CO2 in a humidified incubator for 24 h. WT/TRPA1-KO A549 cells were treated with AHs gradient concentrations (0, 150, 300, 600, 1200 μM) prepared in methanol (1.2 M) for 24 h. Additionally, WT/TRPA1-KO A549 cells were pre-treated with TRPA1 special inhibitor HC-030031 (100 μM) for 0.5 h and then treated with AHs gradient concentrations for 24 h.
To conduct the cell viability assay, the growth medium was removed from WT/TRPA1-KO A549 cells cultured in a 96-well plate. CCK-8 reagent was mixed with complete medium (1:9 volume ratio), and 100 µL of the CCK-8 reagent mixture was added to each well. The plate was incubated for 4 h and the absorbance was measured at 450 nm using a microplate reader (BNR05740; Molecular Devices, Sunnyvale, CA, USA). The average absorbance from each sextuplicate set of wells was calculated and the background control value was subtracted from each absorbance value. The percentage cell viability was determined using the following equation:cell viability (%) = [(As − Ab)/(Ac − Ab)] × 100% where As is the absorbance of the experimental well (containing medium, CCK-8 reagent, cells, and compound); Ac is the absorbance of the control well (containing medium, CCK-8 reagent, and cells); and Ab is the absorbance of the blank well (containing medium and CCK-8 reagent).

[3] = test system: zebrafish embryos; conditions: cited from earlier work

SMILES: CCC(=O)Nc1ccc(Cl)c(Cl)c1 [Propanil, propanil]
- TRPA1 mRNA expression with HC-030031 pre-treatment compared with AHs treatment alone [1]: significantly reduced
- expression of TRPA1 mRNA compared with 0 μM AHs [1]: significantly increased
- IC50 [2]: 2560 µM
- viability of TRPA1-KO A549 cells compared with AHs-treated WT cells [2]: significantly increased the viability

SMILES: CCCOCCN(C(=O)CCl)c1c(CC)cccc1CC [Pretilachlor, pretilachlor]
- toxic effects [3]: endocrine disorder, cell apoptosis, and immunotoxicity
- TRPA1 mRNA expression with HC-030031 pre-treatment compared with AHs treatment alone [1]: albeit not significantly
- expression of TRPA1 mRNA compared with 0 μM AHs [1]: significantly increased
- IC50 [2]: 3670 µM
- viability of TRPA1-KO A549 cells compared with AHs-treated WT cells [2]: significantly increased the viability

SMILES: CCc1cccc(C)c1N(C(=O)CCl)C(C)COC (stereo not shown) [Metolachlor, metolachlor]
- TRPA1 mRNA expression with HC-030031 pre-treatment compared with AHs treatment alone [1]: significantly reduced
- expression of TRPA1 mRNA compared with 0 μM AHs [1]: significantly increased
- IC50 [2]: 562 µM
- viability of TRPA1-KO A549 cells compared with AHs-treated WT cells [2]: significantly increased the viability
